In assay [1] the test system is C5b-9 deposition on PIGA null TF-1 cells. Briefly: Flow cytometry for C5b-9 deposition. The format is cell-based, human. To be noted: for Inhibition of C5b-9 deposition induced by APS patient sera: APS patient sera on PIGA null TF-1 cells; for Inhibition of C5b-9 deposition induced by CAPS sera: CAPS patient sera (e.g. CAPS5); for Inhibition of C5b-9 deposition induced by patient-derived IgG anti-β2GPI antibody: anti-β2GPI from thrombotic APS patient APS21 added to normal human serum. The procedure:
Patient derived anti-β2GPI antibodies. Anti-β2GPI antibodies from two patients were affinity purified using a column of Affigel HZ to which purified human β2GPI was coupled (Bio-Rad Laboratories, Hercules, Calif.), as previously described.^43 IgG purity was assessed by reduced SDS-PAGE. Complement activation (C5b-9 deposition and complement dependent cell killing in mHam) induced by patient-derived anti-β2GPI antibodies was tested by adding patient-derived anti-β2GPI antibodies to normal human serum (Cat. NHS, Complement Technology, Inc.).
Flow cytometry for C5b-9 deposition. Flow cytometry was performed to evaluate cell surface deposition of C5b-9 deposition on PIGA null TF1 cells. Cells were seeded in V-bottom 96-well plates (1.2×10^5 cells/well) either in GVB^0.MgEGTA (pH 6.4) buffer for alternative pathway activation or GVB++ (pH 7.4) buffer for classical pathway activation followed by addition of APS patient serum (or patient-derived aPL added to normal human serum). The reaction was incubated for 15 min at 37° C., and stopped by adding FACS buffer/EDTA. Cell pellets were separated by centrifugation at 1900 rpm for 3 minutes at room temperature and then stained with Alexa 488 conjugated anti-C3c antibody (Cat. 4212, Abcam, dilution at 1:100) and […] monoclonal primary antibody (Cat. 66768, Abcam, dilution at 1:100), followed by Alexa 647 conjugated secondary antibody. C5b-9 deposition was measured by a BD FACSCalibur. Ten thousand events were recorded per sample and analyzed using FlowJo software version 10.5.3 (FlowJo Inc). Normal human serum was used as a negative control for flow cytometry assays. We also evaluated the effect of adding anti-C5 mAb and ACH-4471 on C5b-9 deposition.

For assay [2], the system named is PIGA null TF-1 cells. The experiment in a line: Modified Ham (mHam) assay, complement-dependent cell killing. In kind it is cell-based, human. To be noted: anti-C5 mAb 10 μg, ACH-4471 0.33 μM; for Inhibition of cell killing in the mHam induced by APS sera: APS patient sera; for Inhibition of mHam cell killing induced by CAPS sera: CAPS patient sera.
The test system of assay [3] is PIGA null TF-1 cells. The settings on record: previously demonstrated (ref. 46); cited from earlier work.

“Also recorded” adds a separate entry of the source.

For the molecule `CC(=O)c1nn(CC(=O)N2C[C@H](F)C[C@H]2C(=O)Nc2cccc(Br)n2)c2ccc(-c3cnc(C)nc3)cc12` [ACH-4471], the “Inhibition of C5b-9 deposition induced by APS patient sera” value in assay [1] is given as “less so”; in assay [1] (listed as ACH4471) it was “did not appreciably inhibit; also recorded: did not prevent”. For the same molecule, the entries for the “Inhibition of C5b-9 deposition induced by CAPS sera” value in assay [1] and in assay [1] (listed as ACH4471) were “partially blocked; also recorded: partially inhibited” and “partially”, respectively. The “Inhibition of C5b-9 deposition induced by aHUS patient sera” value in assay [1] (aHUS patient PS-18 sera) was “completely inhibited”. Besides, the results for the “Inhibition of C5b-9 deposition induced by patient-derived IgG anti-β2GPI antibody” value in assay [1] and in assay [1] (listed as factor D inhibitor) were “partially” and “minimally inhibited”, respectively. The figures for the “Inhibition of cell killing in the mHam induced by APS sera” value in the assay with PIGA null TF-1 cells [2] and in the assay with PIGA null TF-1 cells [2] (listed as ACH4471) were “less so” and “did not prevent cell killing”, respectively. Also, the “Inhibition of mHam cell killing induced by CAPS sera” value is given as “partially blocked; also recorded: partially inhibited” with PIGA null TF-1 cells [2] and “attenuated” with PIGA null TF-1 cells [2] (listed as factor D inhibitor). The “Blocking complement dependent killing in the mHam with aHUS serum” value in the assay with PIGA null TF-1 cells [3] was “highly effective in blocking”.

The values above are taken from patent publication US20230017785A1, “COMPANION DIAGNOSTICS FOR COMPLEMENT INHIBITORS” (THE JOHNS HOPKINS UNIVERSITY, priority 2019, published 2023).
